The supplement of paper PMC10307832

Columns and labels:
Assay in all cases: relative viability (nuclei count vs DMSO), 5 days (fraction); higher = more cells survive
Obatoclax + Foretinib = compound: COC1=CC(c2cc3ccccc3[nH]2)=N/C1=C\c1[nH]c(C)cc1C [Obatoclax] + COc1cc2c(Oc3ccc(NC(=O)C4(C(=O)Nc5ccc(F)cc5)CC4)cc3F)ccnc2cc1OCCCN1CCOCC1 [Foretinib] (partner 0.25 µM)
In short: (§1)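 Nuclei were stained with Hoechst during a one-step fixation (final 0.05% Triton X-100, 1% formaldehyde, 1 ug/ml Hoechst) carried out 5 days after dosing, then counted on 4× images. The cells, lung cancer lines in 1536-well plates, had been dosed by pin tool the day after seeding with one drug alone or a fixed anchor-drug dose plus five library-drug doses (not always all listed) in √10 steps. Relative viability is the nuclei count in treated wells divided by that in vehicle wells, and each value is the median of duplicate plates.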

Bortezomib + Tozasertib = compound: CC(C)C[C@H](NC(=O)[C@H](Cc1ccccc1)NC(=O)c1cnccn1)B(O)O [Bortezomib] + Cc1cc(Nc2cc(N3CCN(C)CC3)nc(Sc3ccc(NC(=O)C4CC4)cc3)n2)n[nH]1 [Tozasertib] (partner 0.1 µM)
In short: as §1

Obatoclax + Alpelisib = compound: COC1=CC(c2cc3ccccc3[nH]2)=N/C1=C\c1[nH]c(C)cc1C [Obatoclax] + Cc1nc(NC(=O)N2CCC[C@H]2C(N)=O)sc1-c1ccnc(C(C)(C)C(F)(F)F)c1 [Alpelisib] (partner 2 µM)
In short: as §1

[1] = compound: CC1=CC(=NN1)NC2=CC(=NC(=N2)/C=C/C3=CC=CC=C3)N4CCN(CC4)C + CC(=O)Nc1cccc(-n2c(=O)n(C3CC3)c(=O)c3c(Nc4ccc(I)cc4F)n(C)c(=O)c(C)c32)c1 [Trametinib] (partner 0.02 µM)
In short: as §1

Cell Line	relative viability (Obatoclax + Foretinib; first compound 0.01 µM)	relative viability (Obatoclax + Foretinib; first compound 0.03162 µM)	relative viability (Obatoclax + Foretinib; first compound 0.1 µM)	relative viability (Obatoclax + Foretinib; first compound 0.3162 µM)	relative viability (Obatoclax + Foretinib; first compound 1 µM)	relative viability (Bortezomib + Tozasertib; first compound 0.0002 µM)	relative viability (Bortezomib + Tozasertib; first compound 0.000632 µM)	relative viability (Bortezomib + Tozasertib; first compound 0.002 µM)	relative viability (Bortezomib + Tozasertib; first compound 0.006325 µM)	relative viability (Bortezomib + Tozasertib; first compound 0.02 µM)	relative viability (Obatoclax + Alpelisib; first compound 0.01 µM)	relative viability (Obatoclax + Alpelisib; first compound 0.03162 µM)	relative viability (Obatoclax + Alpelisib; first compound 0.1 µM)	relative viability (Obatoclax + Alpelisib; first compound 0.3162 µM)	relative viability (Obatoclax + Alpelisib; first compound 1 µM)	relative viability ([1]; first compound 0.08 µM)	relative viability ([1]; first compound 0.253 µM)	relative viability ([1]; first compound 0.8 µM)	relative viability ([1]; first compound 2.53 µM)	relative viability ([1]; first compound 8 µM)
LOU-NH91	0.918	0.917	0.787	0.904	0.819	0.643	0.7	0.32	0.224	0.166	0.741	0.651	0.66	0.643	0.636	0.767	0.823	0.754	0.783	0.439
LU99A	0.875	0.792	0.774	0.619	0.714	0.279	0.29	0.247	0.252	0.17	0.626	0.641	0.567	0.3	0.2	0.54	0.311	0.532	0.328	0.165
LXF-289	0.91	0.988	1.05	0.932	1.02	0.166	0.183	0.157	0.0616	0.046	1.01	0.944	1.04	1.04	0.963	0.637	0.623	0.637	0.592	0.442
NCI-H23	1.04	1	0.986	0.826	1.01	0.306	0.366	0.352	0.111	0.107	0.667	0.607	0.691	0.604	0.569	0.302	0.317	0.257	0.142	0.118
NCI-H322M	0.997	1.02		0.853	0.696	0.468		0.442	0.278	0.308	0.705	0.819	0.793	0.889	0.781	0.485	0.57	0.811	0.337	0.327
NCI-H358	0.664	0.847	0.668	0.415	0.311	0.101	0.114	0.103	0.0691	0.0756	0.925	0.848	0.635	0.336	0.283	0.124	0.123	0.128	0.0733	0.0762
NCI-H441	0.877	0.925	1.05	0.639	0.612	0.66	0.799	0.383	0.186	0.191	0.662	0.822	0.632	0.419	0.327	0.434	0.426	0.42	0.141	0.0993
NCI-H460	0.993	1.01	0.947	0.456	0.157	0.386	0.366	0.616	0.304	0.0187	0.509	0.481	0.309	0.0452	0.0244	0.171	0.0318	0.129	0.0109	0.0042
NCI-H520	0.825	0.727	0.944	0.668	0.609	0.482	0.401	0.262	0.24	0.232	0.901	0.953	0.92	0.7	0.835	0.758	0.531	0.543	0.12	0.111
NCI-H596	0.758	0.798	0.823	0.535	0.492	0.82	0.949	0.753	0.188	0.155	0.481	0.437	0.469	0.402	0.401	0.846	1.07	0.839	0.4	0.216
NCI-H647	1.14	1.04	1.12	0.935	0.476	0.297	0.19	0.203	0.0209	0.0248	1.09	1.3	0.875	0.265	0.148	0.504	0.282	0.377	0.109	0.0926
NCI-H661	0.977	1.03	1.05	0.936	0.763	0.367	0.355	0.341	0.287	0.201	0.643	0.507	0.261	0.458	0.84	0.593	0.478	0.628	0.256	0.242
NCI-H727	1.04	0.628	1.07	0.699	1.08	0.688	0.775	0.606	0.394	0.162	0.575	0.578	0.405	0.475	0.245	0.355	0.347	0.429	0.347	0.285
NCI-H838	1.03	1.11	0.996	1.1	0.858	0.251	0.298	0.327	0.109	0.123	0.968	0.992	0.914	0.822	0.617	0.526	0.541	0.44	0.119	0.12
NCI-H1355	1.04	0.936	0.986	0.94	0.529	0.503	0.591	0.584	0.131	0.122	0.866	0.905	0.795	0.681	0.658	0.457	0.435	0.415	0.334	0.151
NCI-H1395	0.938	0.702	0.929	1.01	0.766	0.793	0.692	0.576	0.288	0.274	1.14	1.2	0.982	0.954	0.474	0.964	1.03	0.975	0.659	0.263
